Non-standard residues stand in square brackets, D forms with d. Residues, ends and D or L forms follow the SMILES beside them. Nle = CCCC[C@H](N)C(=O)O
System: DocSTm toxin
Conditions: DocSTm 5 μM, peptide 50 μM; for Average Tm of DocSTm in the presence of peptide: pH 8.0, average ± SD, replicates 3-48 (Table S3)
Protocol: The thermal shift assay was performed using a Mx3005P qPCR System (Agilent) collecting fluorescence data with a temperature ramp of 25 to 95 °C. Samples were prepared in a buffer containing 20 mM K2HPO4 and 50 mM (NH4)2SO4 at pH 8.0, with a final concentration of recombinant Doc protein at 5 μM and Phd peptides at 50 μM. SYPRO Orange dye (Sigma-Aldrich, 5000X stock in DMSO) was used to monitor protein denaturation in a final concentration of 3×. The final sample volume was 20 μL. Each condition was prepared in triplicate in each independent experiment. The melting curves were plotted using GraphPad Prism 9 (GraphPad Software, USA), and the melting temperatures were obtained by fitting the sigmoidal section of the curves to a Boltzmann sigmoid function. For the calculation of thermal shifts ΔTm, the average melting temperature of free DocSTm toxin as determined in the respective peptide measurement cycles was subtracted from the average melting temperature of DocSTm in the presence of the peptide (Table S3).

Row | Compound | Average Tm of DocSTm in the presence of peptide [°C] | ΔTm (thermal shift) of DocSTm in the presence of peptide (SYPRO Orange 3×, 20 mM K2HPO4, 50 mM (NH4)2SO4, pH 8.0, average Tm with peptide minus average Tm of free DocSTm, mean ± SD)
1 | CCCC[C@H](NC(=O)[C@H](Cc1c[nH]c2ccccc12)NC(C)=O)C(=O)N[C@@H](CCCNC(=N)N)C(=O)N[C@@H](CC(=O)O)C(=O)N[C@@H](CCC(=O)O)C(=O)N[C@@H](Cc1ccccc1)C(=O)N[C@@H](C)C(=O)N[C@@H](C)C(=O)N[C@H](C(=O)N[C@@H](CCCC)C(=O)N[C@@H](C)C(=O)N[C@H](C(=O)N[C@@H](Cc1c[nH]cn1)C(=O)NCC(=O)N[C@@H](CC(N)=O)C(=O)N[C@@H](CCC(=O)O)C(=O)N[C@@H](CC(C)C)C(=O)N[C@@H](CCCNC(=N)N)C(=O)N[C@@H](CCC(=O)O)C(=O)N[C@@H](CC(C)C)C(=O)N[C@@H](C)C(=O)N[C@@H](CC(=O)O)C(=O)N[C@@H](CCCCN)C(=O)O)C(C)C)[C@@H](C)CC [Peptide 2] (Ac-W[Nle]RDEFAAI[Nle]AVHGNELRELADK-OH) | 66.4 ± 0.2 | –
2 | CCCC[C@H](NC(=O)[C@H](Cc1c[nH]c2ccccc12)NC(C)=O)C(=O)N[C@@H](CC(=O)O)C(=O)N[C@@H](CC(=O)O)C(=O)N[C@@H](CCC(=O)O)C(=O)N[C@@H](Cc1ccccc1)C(=O)N[C@@H](C)C(=O)N[C@@H](C)C(=O)N[C@H](C(=O)N[C@@H](CCCC)C(=O)N[C@@H](CCCNC(=N)N)C(=O)N[C@H](C(=O)N[C@@H](Cc1c[nH]cn1)C(=O)NCC(=O)N[C@@H](CC(N)=O)C(=O)N[C@@H](CCC(=O)O)C(=O)N[C@@H](CC(C)C)C(=O)N[C@@H](CCCNC(=N)N)C(=O)N[C@@H](CCC(=O)O)C(=O)N[C@@H](CC(C)C)C(=O)N[C@@H](C)C(=O)N[C@@H](CC(=O)O)C(=O)N[C@@H](CCCCN)C(=O)O)C(C)C)[C@@H](C)CC [Peptide 7] (Ac-W[Nle]DDEFAAI[Nle]RVHGNELRELADK-OH) | 70.2 ± 0.3 | –
3 | CCCC[C@H](NC(=O)[C@H](Cc1c[nH]c2ccccc12)NC(C)=O)C(=O)N[C@@H](CC(=O)O)C(=O)N[C@@H](CC(=O)O)C(=O)N[C@@H](CCC(=O)O)C(=O)N[C@@H](Cc1ccccc1)C(=O)N[C@@H](C)C(=O)N[C@@H](C)C(=O)N[C@H](C(=O)N[C@@H](CCCC)C(=O)N[C@@H](C)C(=O)N[C@H](C(=O)N[C@@H](Cc1c[nH]cn1)C(=O)NCC(=O)N[C@@H](CC(N)=O)C(=O)N[C@@H](CCC(=O)O)C(=O)N[C@@H](CC(C)C)C(=O)N[C@@H](CCCNC(=N)N)C(=O)N[C@@H](CCC(=O)O)C(=O)N[C@@H](CC(C)C)C(=O)N[C@@H](CCCNC(=N)N)C(=O)N[C@@H](CC(=O)O)C(=O)N[C@@H](CCCCN)C(=O)O)C(C)C)[C@@H](C)CC [Peptide 12] (Ac-W[Nle]DDEFAAI[Nle]AVHGNELRELRDK-OH) | 68.3 ± 0.9 | –
4 | CCCC[C@H](NC(=O)[C@H](Cc1c[nH]c2ccccc12)NC(C)=O)C(=O)N[C@@H](CCCNC(=N)N)C(=O)N[C@@H](CCCNC(=N)N)C(=O)N[C@@H](CCC(=O)O)C(=O)N[C@@H](Cc1ccccc1)C(=O)N[C@@H](CCCNC(=N)N)C(=O)N[C@@H](CCCNC(=N)N)C(=O)N[C@H](C(=O)N[C@@H](CCCC)C(=O)N[C@@H](CCCNC(=N)N)C(=O)N[C@H](C(=O)N[C@@H](Cc1c[nH]cn1)C(=O)NCC(=O)N[C@@H](CCCNC(=N)N)C(=O)N[C@@H](CCC(=O)O)C(=O)N[C@@H](CC(C)C)C(=O)N[C@@H](CCCNC(=N)N)C(=O)N[C@@H](CCC(=O)O)C(=O)N[C@@H](CC(C)C)C(=O)N[C@@H](C)C(=O)N[C@@H](CC(=O)O)C(=O)N[C@@H](CCCCN)C(=O)O)C(C)C)[C@@H](C)CC [Peptide 15] (Ac-W[Nle]RREFRRI[Nle]RVHGRELRELADK-OH) | 57.8 ± 0.7 | 11–13 °C

Source: paper PMC10728895, “Stapled Phd Peptides Inhibit Doc Toxin Induced Growth Arrest in Salmonella” (ACS Chemical Biology, 2023)
